According to doi:10.1101/2025.07.03.663083, “TMC1 and TMC2 are cholesterol-dependent scramblases that regulate membrane homeostasis in auditory hair cells” (bioRxiv, 2025):

Key:
Experiment in all cases: proteoliposome scramblase assay, dithionite and BSA back-extraction of NBD fluorescence
Format in all cases: functional
MuTMC2 (truncated) = target: T1, MuTMC2 (truncated) (Melopsittacus undulatus, UniProt Z9DQS5U608); conditions: labelled compound; POPC/POPE/POPS […] with […] cholesterol, pH […] °C; lipid translocation, no headgroup specificity
T1 construct: transmembrane core without N- and C-terminal domains; His-GFP tag kept; Sf9 (baculovirus); purified in DDM/CHS, reconstituted in liposomes
T1 sequence (Z9DQS5U608 211-807): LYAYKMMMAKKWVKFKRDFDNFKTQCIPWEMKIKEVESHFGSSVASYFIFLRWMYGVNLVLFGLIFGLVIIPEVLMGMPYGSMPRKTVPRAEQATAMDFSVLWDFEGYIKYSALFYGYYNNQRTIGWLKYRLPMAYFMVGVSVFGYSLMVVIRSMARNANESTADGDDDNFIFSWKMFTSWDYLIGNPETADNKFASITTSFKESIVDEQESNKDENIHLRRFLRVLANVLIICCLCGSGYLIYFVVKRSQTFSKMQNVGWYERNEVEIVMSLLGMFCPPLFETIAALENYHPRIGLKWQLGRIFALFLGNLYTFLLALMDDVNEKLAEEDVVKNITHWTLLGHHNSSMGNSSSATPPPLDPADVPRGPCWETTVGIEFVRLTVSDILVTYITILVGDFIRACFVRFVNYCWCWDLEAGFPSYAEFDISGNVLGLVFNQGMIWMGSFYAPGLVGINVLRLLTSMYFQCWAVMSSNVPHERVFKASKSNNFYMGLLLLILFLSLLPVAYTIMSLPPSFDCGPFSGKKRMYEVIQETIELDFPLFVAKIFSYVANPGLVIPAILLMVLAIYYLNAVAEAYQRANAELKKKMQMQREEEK

FL MuTMC2 = target: T2, FL MuTMC2 (Melopsittacus undulatus, UniProt Z9DQS5U608); conditions: labelled compound; POPC/POPE/POPS […] with […] cholesterol, pH […] °C; lipid translocation, no headgroup specificity
T2 construct: full length, 1-928; His-GFP tag; Sf9 (baculovirus); reconstituted in liposomes
T2 sequence (Z9DQS5U608 1-928): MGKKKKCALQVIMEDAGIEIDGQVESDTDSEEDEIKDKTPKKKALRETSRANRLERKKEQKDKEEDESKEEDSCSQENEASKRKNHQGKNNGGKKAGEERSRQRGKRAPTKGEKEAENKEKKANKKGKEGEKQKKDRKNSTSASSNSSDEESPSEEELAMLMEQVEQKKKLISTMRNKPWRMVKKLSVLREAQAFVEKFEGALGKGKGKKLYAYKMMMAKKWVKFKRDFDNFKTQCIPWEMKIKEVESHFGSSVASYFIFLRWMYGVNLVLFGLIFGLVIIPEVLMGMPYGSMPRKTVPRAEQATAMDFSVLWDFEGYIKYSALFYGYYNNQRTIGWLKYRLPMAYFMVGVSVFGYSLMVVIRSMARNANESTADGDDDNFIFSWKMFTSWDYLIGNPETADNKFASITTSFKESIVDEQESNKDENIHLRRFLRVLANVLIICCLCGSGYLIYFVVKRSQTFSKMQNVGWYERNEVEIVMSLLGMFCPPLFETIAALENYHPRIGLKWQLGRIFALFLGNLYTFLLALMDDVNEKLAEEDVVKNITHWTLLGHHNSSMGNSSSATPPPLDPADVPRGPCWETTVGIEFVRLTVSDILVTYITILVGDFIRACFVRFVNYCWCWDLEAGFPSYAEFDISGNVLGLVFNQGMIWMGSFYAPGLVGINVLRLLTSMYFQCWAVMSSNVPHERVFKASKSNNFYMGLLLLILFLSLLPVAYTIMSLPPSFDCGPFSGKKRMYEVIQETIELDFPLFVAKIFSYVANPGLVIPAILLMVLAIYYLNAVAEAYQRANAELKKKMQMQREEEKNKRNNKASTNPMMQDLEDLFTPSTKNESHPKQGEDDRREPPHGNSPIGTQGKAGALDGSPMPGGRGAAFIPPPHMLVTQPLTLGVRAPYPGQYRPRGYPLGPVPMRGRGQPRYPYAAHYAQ

FL CmTMC1 = target: T3, FL CmTMC1 (Chelonia mydas, UniProt Z9P3M8BL59); conditions: labelled compound; POPC/POPE/POPS 2:1:1 with 10% cholesterol, pH 7.4, 25 °C; lipid translocation, no headgroup specificity
T3 construct: full length, 1-955; His-GFP tag; Sf9 (baculovirus); reconstituted in liposomes
T3 sequence (Z9P3M8BL59 1-955): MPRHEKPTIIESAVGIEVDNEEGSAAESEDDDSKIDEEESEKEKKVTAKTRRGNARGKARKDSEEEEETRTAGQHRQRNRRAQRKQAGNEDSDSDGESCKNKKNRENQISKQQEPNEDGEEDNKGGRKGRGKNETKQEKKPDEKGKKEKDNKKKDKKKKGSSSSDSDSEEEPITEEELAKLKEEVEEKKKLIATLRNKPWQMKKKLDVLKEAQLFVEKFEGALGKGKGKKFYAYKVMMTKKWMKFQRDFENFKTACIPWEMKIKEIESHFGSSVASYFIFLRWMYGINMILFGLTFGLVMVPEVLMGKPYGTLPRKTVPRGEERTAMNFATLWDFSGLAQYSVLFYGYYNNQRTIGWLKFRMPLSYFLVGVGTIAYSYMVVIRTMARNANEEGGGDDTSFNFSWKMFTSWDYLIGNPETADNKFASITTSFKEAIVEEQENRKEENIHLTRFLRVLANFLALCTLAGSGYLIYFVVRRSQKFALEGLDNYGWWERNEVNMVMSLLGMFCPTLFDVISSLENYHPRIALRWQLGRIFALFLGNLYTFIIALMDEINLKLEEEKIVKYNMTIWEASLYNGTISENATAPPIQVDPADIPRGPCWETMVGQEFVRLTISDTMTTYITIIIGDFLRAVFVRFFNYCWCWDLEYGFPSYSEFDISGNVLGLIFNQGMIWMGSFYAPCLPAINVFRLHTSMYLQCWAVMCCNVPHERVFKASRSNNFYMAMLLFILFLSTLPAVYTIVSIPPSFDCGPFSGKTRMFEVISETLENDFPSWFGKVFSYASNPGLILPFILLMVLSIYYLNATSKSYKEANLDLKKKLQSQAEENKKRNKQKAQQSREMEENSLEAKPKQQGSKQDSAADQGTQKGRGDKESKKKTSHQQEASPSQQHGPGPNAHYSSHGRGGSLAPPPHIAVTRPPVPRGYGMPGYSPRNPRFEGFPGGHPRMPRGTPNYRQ

CmTMC1 (truncated) = target: T4, CmTMC1 (truncated) (Chelonia mydas, UniProt Z9P3M8BL59); conditions: labelled compound; POPC/POPE/POPS 2:1:1 with 10% cholesterol, pH 7.4, 25 °C; lipid translocation, no headgroup specificity
T4 construct: transmembrane core without N- and C-terminal domains; His-GFP tag kept; Sf9 (baculovirus); purified in DDM/CHS, reconstituted in liposomes
T4 sequence (Z9P3M8BL59 230-828): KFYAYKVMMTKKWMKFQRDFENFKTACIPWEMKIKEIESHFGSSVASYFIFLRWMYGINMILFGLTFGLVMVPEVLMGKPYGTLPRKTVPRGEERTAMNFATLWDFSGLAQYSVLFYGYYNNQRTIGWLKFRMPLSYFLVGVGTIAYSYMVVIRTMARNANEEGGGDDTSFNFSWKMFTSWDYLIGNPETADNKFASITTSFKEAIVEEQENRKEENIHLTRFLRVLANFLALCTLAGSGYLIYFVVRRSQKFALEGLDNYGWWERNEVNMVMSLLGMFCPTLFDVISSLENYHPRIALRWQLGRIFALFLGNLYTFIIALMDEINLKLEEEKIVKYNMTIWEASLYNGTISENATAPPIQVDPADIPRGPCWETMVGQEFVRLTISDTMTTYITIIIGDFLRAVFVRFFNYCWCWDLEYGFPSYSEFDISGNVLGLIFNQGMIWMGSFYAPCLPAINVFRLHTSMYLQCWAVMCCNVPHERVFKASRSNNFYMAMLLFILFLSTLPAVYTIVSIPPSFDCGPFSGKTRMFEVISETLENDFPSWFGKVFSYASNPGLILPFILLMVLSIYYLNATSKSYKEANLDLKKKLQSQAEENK

CCCCCCCCCCCCCC(=O)OC[C@H](COP(=O)(O)OCCN)OC(=O)CCCCCNc1ccc([N+](=O)[O-])c2nonc12 [NBD-PE, 1-myristoyl-2-sn-glycero-3-phosphoethanolamine]
proteoliposome scramblase assay, dithionite and BSA back-extraction of NBD fluor (MuTMC2 (truncated)): due to scrambling of the fluorescent NBD-PE lipids by the TMC proteins
proteoliposome scramblase assay, dithionite and BSA back-extraction of NBD fluor (FL MuTMC2): no differences in PLS activity between truncated and FL CmTMC1 and MuTMC2
proteoliposome scramblase assay, dithionite and BSA back-extraction of NBD fluor (FL CmTMC1): no differences in PLS activity between truncated and FL CmTMC1 and MuTMC2
proteoliposome scramblase assay, dithionite and BSA back-extraction of NBD fluor (CmTMC1 (truncated)): due to scrambling of the fluorescent NBD-PE lipids by the TMC proteins
